Laboratory results as given in patent US20230293458A1, “MULTIBIOTIC AGENTS AND METHODS OF USING THE SAME” (Flagship Pioneering Innovations V, Inc., priority 2017, published 2023).

What was measured:
[1] = Stability of multibiotic agents in Simulated Gastric Fluid (SGF); assay type: in vitro ADME; conditions: simulated gastric fluid pH 1.6 with pepsin, 37° C., 1 μM
Experimental: Assay 3. Stability of multibiotic agents in Simulated Gastric Fluid (SGF). This assay can be used to assess the stability of a multibiotic agent in a stomach.
Medium was prepared by dissolving 2 g of sodium chloride in 0.6 L in ultrapure water (MilliQ®, Millipore Sigma, Darmstadt, Germany). The pH was adjusted to 1.6 with 1 N hydrochloric acid, and the volume was then adjusted to 1 L with purified water.
60 mg FaSSIF powder (Biorelevant™, London, UK) were dissolved in 500 mL buffer (above). Pepsin was added (0.1 mg/mL) (Millipore Sigma, Darmstadt, Germany), and the solution was stirred. The resulting SGF media were used fresh for each experiment.
Test compounds were dissolved in DMSO stock to 1 mM. An aliquot of the DMSO stock solution was removed and diluted in the SGF Media in 15 mL falcon tubes to generate a total compound concentration of 1 μM. A 1 mL aliquot was immediately removed and diluted once with 1 volume of acetonitrile for T0 timepoint. The mixture was sealed and mixed at 37° C. in an incubator. Aliquots (1 mL) were removed at regular intervals and immediately quenched by the addition of 1 volume of acetonitrile. The resulting samples were analyzed by LC/MS to determine degradation rates in SGF.

[2] = Stability of multibiotic agents in Simulated Intestinal Fluid (SIF); assay type: in vitro ADME; conditions: simulated intestinal fluid pH 6.7 with pancreatin, 37° C., 1 μM
Experimental: Assay 2. Stability of multibiotic agents in Simulated Intestinal Fluid (SIF). This assay can be used to assess the stability of a multibiotic agent in a small intestine. Phosphate buffer was prepared by dissolving 0.42 g of sodium hydroxide pellets and 3.95 g of monobasic sodium phosphate monohydrate and 6.19 g of sodium chloride in ultrapure water (MilliQ®, Millipore Sigma, Darmstadt, Germany). The pH was adjusted to 6.7 using aq. HCl and aq. NaOH, as necessary, and the solution was diluted with ultrapure water to produce 1 L of the pH 6.7 buffer. 112 mg FaSSIF powder (Biorelevant™, London, UK) was dissolved in 50 mL of the pH 6.7 buffer. 2 to 3 mL of the resulting solution were then added to 500 mg pancreatin (Millipore Sigma, Darmstadt, Germany). The resulting mixture was agitated by finger tapping the vessel containing the mixture until milky suspension formed. At this time, the remainder of the 50 mL FaSSiF/pH 6.7 buffer solution was added. The resulting suspension was flipped upside down 10 times to produce SIF, which was used fresh. Test compounds are dissolved in DMSO stock to 1 mM. An aliquot of the DMSO stock solution is removed and diluted in the SIF media in 15 mL falcon tubes to produce a mixture with a tested compound concentration of 1 μM. A 1 mL aliquot is immediately removed and diluted once with 1 volume of acetonitrile for T0 timepoint. The mixture is sealed and agitated at 37° C. in an incubator. Aliquots (1 mL) are removed at regular intervals and immediately quenched by the addition of 1 volume of acetonitrile. The resulting samples are analyzed by LC/MS to determine degradation rates.

| Compound | Assay 2 (SGF) (% Remaining @ 4 hours) [1] | Assay 3 (SIF) (% @ Remaining 4 hours) [2] |
| --- | --- | --- |
| COc1cc(/C=C/C(=O)CC(=O)/C=C/c2ccc(OC(=O)Cc3c[nH]c4ccccc34)c(OC)c2)ccc1OC(=O)Cc1c[nH]c2ccccc12 [Example 1, [4-[(1E,6E)-7-[4-[2-(1H-indol-3-yl)acetyl]oxy-3-methoxy-phenyl]-3,5-dioxo-hepta-1,6-dienyl]-2-methoxy-phenyl] 2-(1H-indol-3-yl)acetate] | C (>75% of the tested compound remaining) | C (>75% of the tested compound remaining) |
| CCCC(=O)Oc1ccc(N)cc1C(=O)O [Example 2, 5-amino-2-butanoyloxy-benzoic acid] | C (>75% of the tested compound remaining) | C (>75% of the tested compound remaining) |
| CCCC(=O)Oc1ccc(/N=N/c2ccc(OC(=O)CCC)c(C(=O)O)c2)cc1C(=O)O [Example 3, 2-butanoyloxy-5-[(E)-(4-butanoyloxy-3-carboxy-phenyl)azo]benzoic acid] | A (<25% of the tested compound remaining) | A (<25% of the tested compound remaining) |
| CCCC(=O)Oc1ccc(/C=C/c2cc(OC(=O)CCC)cc(OC(=O)CCC)c2)cc1 [Example 7, [4-[(E)-2-[3,5-di(butanoyloxy)phenyl]vinyl]phenyl] butanoate] | C (>75% of the tested compound remaining) | B (25-75% of the tested compound remaining) |
| O=C(Cc1c[nH]c2ccccc12)Oc1ccc(/C=C/c2cc(OC(=O)Cc3c[nH]c4ccccc34)cc(OC(=O)Cc3c[nH]c4ccccc34)c2)cc1 [Example 8, [4-[(E)-2-[3,5-bis[[2-(1H-indol-3-yl)acetyl]oxy]phenyl]vinyl]phenyl] 2-(1H-indol-3-yl)acetate] | C (>75% of the tested compound remaining) | C (>75% of the tested compound remaining) |
| CCCC(=O)Oc1ccc(/C=C/C(=O)CC(=O)/C=C/c2ccc(OC(=O)CCC)c(OC)c2)cc1OC [Example 14, [4-[(1E,6E)-7-(4-butanoyloxy-3-methoxy-phenyl)-3,5-dioxo-hepta-1,6-dienyl]-2-methoxy-phenyl] butanoate] | C (>75% of the tested compound remaining) | C (>75% of the tested compound remaining) |
| CC(=O)Oc1ccc2c(c1)oc(=O)c1cc(OC(C)=O)c(OC(C)=O)cc12 [Example 51, (8,9-diacetoxy-6-oxo-benzo[c]chromen-3-yl) acetate] | C (>75% of the tested compound remaining) | C (>75% of the tested compound remaining) |
| O=C(Cc1c[nH]c2ccccc12)Oc1ccc2c(c1)oc(=O)c1cc(OC(=O)Cc3c[nH]c4ccccc34)c(OC(=O)Cc3c[nH]c4ccccc34)cc12 [Example 55, [8,9-bis[[2-(1H-indol-3-yl)acetyl]oxy]-6-oxo-benzo[c]chromen-3-yl] 2-(1H-indol-3-yl)acetate] | C (>75% of the tested compound remaining) | B (25-75% of the tested compound remaining) |
| O=C(CCc1c[nH]c2ccccc12)Oc1ccc2c(c1)oc(=O)c1cc(OC(=O)CCc3c[nH]c4ccccc34)c(OC(=O)CCc3c[nH]c4ccccc34)cc12 [Example 56, [8,9-bis[3-(1H-indol-3-yl)propanoyloxy]-6-oxo-benzo[c]chromen-3-yl] 3-(1H-indol-3-yl)propanoate] | C (>75% of the tested compound remaining) | C (>75% of the tested compound remaining) |
| CCCC(=O)O[C@H](C)CC(=O)Oc1ccc(/C=C/c2cc(OC(=O)C[C@@H](C)OC(=O)CCC)cc(OC(=O)C[C@@H](C)OC(=O)CCC)c2)cc1 [Example 72, [4-[(E)-2-[3,5-bis[[(3R)-3-butanoyloxybutanoyl]oxy]phenyl]vinyl]phenyl] (3R)-3-butanoyloxy-butanoate] | C (>75% of the tested compound remaining) | B (25-75% of the tested compound remaining) |
| CCCC(=O)O[C@H](C)CC(=O)Oc1ccc(/C=C/C(=O)CC(=O)/C=C/c2ccc(OC(=O)C[C@@H](C)OC(=O)CCC)c(OC)c2)cc1OC [Example 73, [4-[(1E,6E)-7-[4-[(3R)-3-butanoyloxybutanoyl]oxy-3-methoxy-phenyl]-3,5-dioxo-hepta-1,6-dienyl]-2-methoxy-phenyl] (3R)-3-butanoyloxybutanoate] | C (>75% of the tested compound remaining) | B (25-75% of the tested compound remaining) |
| CC(=O)Oc1cc(OC(C)=O)c2c(=O)c(OC(C)=O)c(-c3ccc(OC(C)=O)c(OC(C)=O)c3)oc2c1 [Example 74, [2-acetoxy-4-(3,5,7-triacetoxy-4-oxo-chromen-2-yl)phenyl] acetate] | C (>75% of the tested compound remaining) | A (<25% of the tested compound remaining) |
| CCCC(=O)Oc1cc(OC(=O)CCC)c2c(=O)c(OC(=O)CCC)c(-c3ccc(OC(=O)CCC)c(OC(=O)CCC)c3)oc2c1 [Example 75, [2-butanoyloxy-4-[3,5,7-tri(butanoyloxy)-4-oxo-chromen-2-yl]phenyl]butanoate] | C (>75% of the tested compound remaining) | B (25-75% of the tested compound remaining) |
| C[C@@H](O)CC(=O)O[C@H]1CO[C@H]2[C@@H]1OC[C@H]2OC(=O)C[C@@H](C)O [Example 78, [(3S,3aR,6R,6aR)-6-[(3R)-3-hydroxybutanoyl]oxy-2,3,3a,5,6,6a-hexahydrofuro[3,2-b]furan-3-yl] (3R)-3-hydroxybutanoate] | C (>75% of the tested compound remaining) | B (25-75% of the tested compound remaining) |
| CC(=O)OCc1cnc(C)c(O)c1COC(C)=O [Example 80, [4-(acetoxymethyl)-5-hydroxy-6-methyl-3-pyridyl] methyl acetate] | C (>75% of the tested compound remaining) | C (>75% of the tested compound remaining) |
| CC(=O)OC[C@H](OC(C)=O)[C@@H](COC(C)=O)OC(C)=O [Example 81, (2R, 3S)-butane-1,2,3,4-tetrayl tetraacetate] | C (>75% of the tested compound remaining) | C (>75% of the tested compound remaining) |
| CCCC(=O)OC[C@H](OC(=O)CCC)[C@@H](COC(=O)CCC)OC(=O)CCC [Example 82, (2R,3S)-butane-1,2,3,4-tetrayl tetrabutyrate] | C (>75% of the tested compound remaining) | B (25-75% of the tested compound remaining) |
| CO[C@@H]1[C@@H](OC(C)=O)[C@@H](OC(C)=O)[C@H](OC(C)=O)[C@H](OC(C)=O)[C@H]1OC(C)=O [Example 84, (1R,2R,3R,4S,5R,6R)-2,3,4,6-tetrakis(acetyloxy)-5-methoxycyclohexyl acetate] | C (>75% of the tested compound remaining) | C (>75% of the tested compound remaining) |
